This note sets out measurements from US20250235434A1, “RIFABUTIN ANALOGS FOR THE TREATMENT OF DISEASE” (BIOVERSYS AG, priority 2022, published 2025).

Holding throughout (assay type): cell-based
The test system of assay [1] is M. kansasii (ATCC 12478). The assay can be described thus: MIC against M. kansasii (resazurin assay). The conditions noted are these: Mycobacterium kansasii, ATCC12478, 168 h, Middlebrook 7H9 + ADC, 90% growth inhibition, 7 days. For orientation: Resazurin is reduced to fluorescent resorufin, in cell work by metabolically active cells.
Assay [2] has as its system S. aureus (UAMS-1625 strain). The experiment in a line: MIC by broth microdilution against S. aureus. As to conditions: Staphylococcus aureus, 20 h, read-out: MIC S. aureus. For orientation: Dilution methods test growth across graded concentrations, often in twofold steps.
Assay [3] deals with M. smegmatis (ATCC 700084). The experiment in a line: MIC against M. smegmatis (resazurin assay). The conditions noted are these: Mycolicibacterium smegmatis, ATCC700084, Middlebrook 7H9 + ADC, 90% growth inhibition, 20 h.
Assay [4] deals with M. abscessus (ATCC 19977). The assay can be described thus: MIC by broth microdilution against M. abscessus. As to conditions: Mycobacteroides abscessus.
In assay [5] the test system is M. xenopi (ATCC 19250). The assay can be described thus: MIC against M. xenopi (resazurin assay). As to conditions: Mycobacterium xenopi, ATCC19250, 168 h, Middlebrook 7H9 + ADC, 90% growth inhibition, 7 days.
The subject of assay [6] is M. avium (ATCC 25291). The assay can be described thus: MIC against M. avium (resazurin assay). The conditions noted are these: Mycobacterium avium, ATCC25291, 168 h, Middlebrook 7H9 + ADC, 90% growth inhibition, 7 days.
For assay [7], the system named is M. tuberculosis H37Rv (ATCC 27294). The assay can be described thus: microbe, parasite or virus in culture. As to conditions: Mycobacterium tuberculosis, 120 h.
Assay [8] has as its system A. baumannii (HUMC1 strain). The experiment in a line: MIC by broth microdilution against A. baumannii. As to conditions: Acinetobacter baumannii, RPMI medium supplemented with 10% FCS, 35° C. for 20 hours, visual reading.
The mark [9] stands for this setting: ATCC19977, 20 h, ATCC 19977, Middlebrook 7H9 broth with ADC supplement, visual reading, read-out: MIC M. abscessus.

SMILES strings stand for the structures. In brackets after ≈: the same amount, converted by molar mass. Where two headings read alike, the source gives them in different places.

For `CO[C@H]1/C=C/O[C@@]2(C)Oc3c(C)c(O)c4c(c3C2=O)C2=NC3(CCN(CC(C)C)CC3)NC2=C(NC(=O)/C(C)=C\C=C\[C@H](C)[C@H](O)[C@@H](C)[C@@H](O)[C@@H](C)[C@H](OC(=O)CN2CCN(CC3CCCCC3)CC2)[C@@H]1C)C4=O` [Compound 40], the MIC is 0.008 µg/mL in assay [1]; 0.25 µg/mL (≈ 0.243 µM) in assay [2]; 0.02 µg/mL in assay [3]; 0.125 µg/mL (≈ 0.122 µM) in assay [4] (setting [9]); 0.05 µg/mL in assay [5]; 0.19 µg/mL in assay [6]. The MIC in assay [7] is 0.004 µg/mL (≈ 0.00389 µM); in assay [8], 0.125 µg/mL (≈ 0.122 µM).

As to `CO[C@H]1/C=C/O[C@@]2(C)Oc3c(C)c(O)c4c(c3C2=O)C2=NC3(CCN(CC(C)C)CC3)NC2=C(NC(=O)/C(C)=C\C=C\[C@H](C)[C@H](O)[C@@H](C)[C@@H](O)[C@@H](C)[C@H](OC(C)=O)[C@@H]1C)C4=O` [Rifabutin], the MIC in assay [1] came to 0.001 µg/mL; in assay [2], 0.016 µg/mL (≈ 0.0189 µM); in assay [3], 0.14 µg/mL; in assay [4] (setting [9]) it was 8 µg/mL (≈ 9.44 µM); in assay [4] (ATCC19977, tested M. abscessus strains, read-out: MIC value on M. abscessus), 8 µg/mL (≈ 9.44 µM); in assay [5] it was 0.01 µg/mL. The MIC in assay [6] is 0.15 µg/mL; in assay [7], 0.0003 µg/mL (≈ 0.000354 µM); in assay [8], not above 0.002 µg/mL.
